Data from patent US4448777A, “1-Phenylindazole-3-one compounds, process and intermediates for their preparation, and pharmaceutical compositions containing same” (Kali-Chemie Pharma GmbH, priority 1981, dated 1984).

Tested on: passive cutaneous anaphylaxis (PCA)
Test: Inhibition of passive cutaneous anaphylaxis (PCA test) in rats
Format: in vivo
Conditions: Rattus norvegicus, po, 10 minutes before intraperitoneal ovoalbumin and Evans blue, blue spot diameter after 30 minutes, read-out: P.C.A. Inhibition ED50
Method: For example, the substances have an inhibiting action on the release of endogenic mediators, from mast cells or basophilic leucocytes, which leads to allergic reactions. The doses to be used vary, of course, depending upon the nature of the substance used, upon the mode of administration and upon the condition to be treated. In general, however, satisfactory results are obtained in animal experiments with peroral doses of between 0.05 and 75 mg. per kg. of body weight. Thus, the new compounds have a specific inhibiting action in the PCA test (passive cutaneous anaphylaxis)in rats which is described below.
Description of the test method to determine the inhibition of passive cutaneous anaphylasis (PCA test, see Arch.int.pharmacology 252 (1981) 316-326)
To prepare the IgE-antiovoalbumin serum, used in this test, by the method of Mota (Immunology 7, (1964) 681) and J. Goose (Immunology 16 (1969) 749), male Wistar rats of 200-250 g. body weight were sensitised by subcutaneous injection of 1 mg. of ovoalbumin and 1 ml. of Bordetella pertussis suspension ("Vaxicoq" Merieux 3×10^10 organisms/ml). After 14 days, the animals are exsanguinated and the blood is centrifuged. The antiserum thus obtained is stored at […].
Non-sensitised rats were injected with in each case 0.1 ml. of antiserum into the skin at in each case four different sites on their shaven backs. After 72 hours, a solution of the test compound, or, for comparison, only the solvent, is administered orally, and 10 minutes later 5 mg. of ovoalbumin and 5 mg. of blue dye (Evans blue) in 0.9% strength sodium chloride solution are administered intraperitoneally. After 30 minutes, the animals are sacrificed and the diameters of the blue spots formed at the sites injected with the antiserum are measured. The inhibiting effect of the test substance is determined from the size of the blue spots which occur. […]

Row | Compound | ED50 [mg/kg]
1 | O=c1c2ccccc2n(-c2ccccc2)n1CCCN1CCN(c2ccccn2)CC1 [Example 19] | 11.5
2 | Cc1ccnc(N2CCN(CCCCn3c(=O)c4ccccc4n3-c3cccc(C(F)(F)F)c3)CC2)c1 [Example 32] | 6.6
3 | O=c1c2ccccc2n(-c2ccccc2)n1CCCCN1CCN(c2ccc(F)cc2)CC1 [Example 17] | 17.9
4 | O=c1c2ccccc2n(-c2ccccc2)n1CCCCN1CCN(c2ccccn2)CC1 [Example 18] | 25
5 | COc1ccccc1N1CCN(CCCCn2c(=O)c3ccc(Cl)cc3n2-c2ccccc2)CC1 [Example 26] | 22
6 | Cc1ccnc(N2CCN(CCCn3c(=O)c4ccccc4n3-c3ccccc3)CC2)c1 [Example 21] | 19.2
7 | COc1ccc2c(c1)c(=O)n(CCCCN1CCN(c3ccccc3OC)CC1)n2-c1ccccc1 [Example 29] | 14
8 | COc1ccc2c(c1)c(=O)n(CCCCN1CCN(c3cc(C)ccn3)CC1)n2-c1ccccc1 [Example 28] | 5.7
9 | O=c1c2ccccc2n(-c2ccccc2)n1CCCN1CCN(c2ccc(F)cc2)CC1 [Example 15] | 10.6
10 | O=c1c2ccccc2n(-c2ccccc2)n1CCCCN1CCN(c2ccccc2)CC1 [Example 12] | 22

Same assay, conditions: oral, 10 minutes before intraperitoneal ovoalbumin and Evans blue, blue spot diameter after 30 minutes

Row | Compound | P.C.A. Inhibition ED50 [mg/kg]
11 | Cc1ccnc(N2CCN(CCCCn3c(=O)c4ccccc4n3-c3ccccc3)CC2)c1 [Example 49] | 15.5
12 | Cc1ccnc(N2CCN(CCCCn3c(=O)c4ccccc4n3-c3ccccc3)CC2)c1 [Example 20] | 7.5
